One data set has as its target HIV-1 PR (Human immunodeficiency virus type 1 group M subtype B, UniProt P04585). The experiment in a line: HIV-protease inhibitory activity assay (FRET peptide substrate). The class given is biochemical. Particulars: Test Example 1. The procedure, abridged: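 Compounds were preincubated with HIV-1 PR (0.83 ng) at room temperature in pH 4.8 NaAc buffer (0.5 M NaCl, EDTA, DTT, Tween 20), then HiLyte Fluor 488/QXL 520 FRET peptide (2 μmol/L final) was added for 60 min. Fluorescence was read at 485/535 nm, and IC50 was fitted by four-parameter logistic regression.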

Data set [1] is described as follows: Evaluation of total body clearance (CLtot), intravenous administration. The class given is in vivo, Sprague-Dawley (SD). Particulars: rat (SD), intravenous administration 0.5-10 mg/kg; CLtot = dose/AUC. In short, it runs like this: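 Compounds given as a single tail-vein injection at 0.5-10 mg/kg (n=2-3), dose varying by compound. Plasma sampled at scheduled times and measured by LC/MS/MS; CLtot derived as dose divided by AUC from pharmacokinetic analysis.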

Data set [2] is described as follows: Protein binding test (equilibrium dialysis, unbound ratio fu in serum). To be noted: rat serum, equilibrium dialysis 24 hours, 37° C., 2 μg/mL. The class given is in vitro ADME. In short, it runs like this:
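Compound at 2 μg/mL in serum was dialysed against PBS for 24 hours at 37° C. Both sides were quantified by LC/MS/MS, and fu was taken as the PBS concentration divided by the serum concentration.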
Background: Equilibrium dialysis compares concentrations on both sides of a semipermeable membrane.

A value given as a limit tells only on which side of the number the result lay.

Here are results for five molecules from patent US20170253607A1, “LONG-ACTING HIV PROTEASE INHIBITOR” (Shionogi & Co., Ltd., priority 2014, published 2017).

As a reminder, the IC50 is the point on the concentration scale where inhibition reaches its midpoint. The low end stands for greater potency, the high end for weaker potency. Molecule `COc1ccc(S(=O)(=O)N(CC(C)C)CC(O)C(Cc2ccc(OCc3ccccc3-c3ccc(Oc4ccc(-c5c(O)c6ccc(Cl)cc6[nH]c5=O)cc4)cc3)cc2)NC(=O)OC2COC3OCCC23)cc1` (stereo not drawn) [Compound I-847] registered an IC50 at HIV-1 PR of 3.38 nM. The molecule further yielded a rat_CLt in data set [1] of 6 mL/min/kg. The rat_fu in data set [2] is on record as less than 0.1%.
The molecule `COc1ccc(S(=O)(=O)N(CC(C)C)CC(O)C(Cc2ccc(NCc3ccc4ccccc4c3-c3sc4c(c3C(=O)O)CC(C)(C)CC4)cc2)NC(=O)OC2COC3OCCC23)cc1` (stereo not drawn) [Compound I-851] showed an IC50 on HIV-1 PR of 2.57 nM. The same molecule displayed a rat_CLt in data set [1] of 0.298 mL/min/kg. Also, the rat_fu in data set [2] is listed as less than 0.1%.
The like results for `COC(=O)NC(C(=O)NC(Cc1ccc(-c2sc3c(c2C(=O)O)CC(C)(C)CC3)cc1)C(O)CC(Cc1ccccc1F)C(=O)NC1c2cc(F)cc(Cl)c2OCC1O)C(C)(C)C` (stereo not drawn) [Compound I-903] were, in that order, 2.23 nM, 0.0436 mL/min/kg and less than 0.1%.
In the same order, the values of `COc1ccc(S(=O)(=O)N(CC(C)C)C[C@@H](O)[C@H](Cc2ccc(OCc3ccccc3-c3sc4c(c3C(=O)O)CC(C)(C)CC4)cc2)NC(=O)OC2CO[C@H]3OC[C@H](OC)[C@@H]23)cc1` (stereo partly drawn) [Compound I-907] are 1.27 nM, 0.73 mL/min/kg and less than 0.1%.
As for `COc1ccc(S(=O)(=O)N(CC(C)C)C[C@@H](O)[C@H](Cc2ccc(OCc3ccccc3-c3sc4c(c3C(=O)O)CC(C)(C)CC4)cc2)NC(=O)O[C@H]2CCO[C@H]3OCC[C@H]32)cc1` [Compound I-908], on HIV-1 PR, the midpoint of inhibition, the IC50, lay at 1.21 nM. The molecule further came in with a rat_CLt in data set [1] of 0.63 mL/min/kg. The rat_fu in data set [2] is reported as less than 0.1%.
